One data set has as its target T1, CyPJ (Homo sapiens, UniProt Q9H2H8).
T1 construct: made in house
T1 sequence (Q9H2H8 1-161): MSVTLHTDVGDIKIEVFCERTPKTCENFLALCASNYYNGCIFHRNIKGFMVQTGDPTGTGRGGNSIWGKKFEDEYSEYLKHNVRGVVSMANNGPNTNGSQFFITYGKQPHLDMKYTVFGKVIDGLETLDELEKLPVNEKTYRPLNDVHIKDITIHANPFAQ
As to the kind of experiment: Surface plasmon resonance (SPR) binding assay. Particulars: Biacore 3000, recombinant human CyPJ immobilized on CM5 chip, 20°C, compounds 0.3–10 μM. The method, then:
The binding affinity of the selected compounds to CyPJ was measured by SPR with a Biacore 3000 instrument (Biacore AB Corporation, Uppsala, Sweden) as previously described ([Guo et al., 2005]; [Chen et al., 2007]). Briefly, recombinant human CyPJ protein was immobilized on an activated sensor chip via amine coupling. CyPJ protein (10 μM) was coupled to a CM5 sensor chip surface (a carboxymethylated dextran surface; CM5 chip from Biacore, Inc., Piscataway, NJ, United States) in a buffer containing 10 mM sodium acetate (pH 4.0) using standard amine coupling chemistry according to the manufacturer’s instructions. Flow cell 1 (FC-1) was used as the control surface and flow cell 2 (FC-2) contained 9000 resonance units (RU) of CyPJ (1 RU corresponds to 1 pg of protein per mm^2). The buffer stream was passed through FC-1 and FC-2 of the bi-channel at a flow rate of 40 μl/min. Compounds to be tested were purchased from SPECS (Netherlands). All chemicals were of the highest purity available, as certified by the vendor. All compounds were stocked in 100% dimethylsulfoxide at 10 mM and diluted at graded concentrations (0.3–10 μM) with HBS-EP buffer (0.01 M HEPES buffer, pH 7.4, containing 0.15 M NaCl, 3.4 mM EDTA, and 0.005% surfactant P20) containing 1% dimethylsulfoxide. The temperature of the instrument was set to 20°C, and the flow rate was set to 40 μl/min. Each compound (50 μl) was injected sequentially. NaOH (50 mM) was used to regenerate the surface of the CM5 chip. The 1:1 Langmuir binding model was used to determine the equilibrium dissociation constant (KD). For fast interactions, the steady-state model was used to determine KD values. All experiments were carried out in triplicate.
A general note: In SPR one partner is held on a chip, and binding of the other changes the refractive index at the surface.

The target of the next data set is T2, CyPJ PPIase (Homo sapiens, UniProt Q9H2H8).
T2 construct: made in house
T2 sequence (Q9H2H8 1-161): T1 sequence (Q9H2H8 1-161)
As to the kind of experiment: α-chymotrypsin-coupled PPIase assay. Particulars: read-out: Compound IC50 for PPIase. In kind it is biochemical. The method, then: We used an α-chymotrypsin-coupled PPIase assay, where the substrate succinyl-Ala-Ala-Pro-Phe-p-nitroanilide (Suc-AAPF-pNA) is first converted to the trans conformation by PPIase, and can then be digested by α-chymotrypsin to release chromogenic p-nitroanilide; the latter compound is then monitored with a spectrometer. Briefly, the assay was performed under 8°C in a 100 μl system. The Suc-AAPF-pNA was dissolved in the […] containing 480 mM of LiCl (working concentration: 3.0 mM). The α-chymotrypsin was dissolved in 1 mM HCl (working concentration: […]). When assayed, each test compound was diluted in 94 μl of assay buffer (50 mM HEPES, 100 mM NaCl; pH 8.0 at 0°C), and then mixed with 2 μl of CyPJ solution (5 μM). […] Three independent experiments were performed for each test compound and the respective half maximal inhibitory concentration (IC50) was calculated with OriginPro 7.5 software (OriginLab, Northampton, MA, United States).
The inhibitory effect of each compounds was determined with a standard spectrophotometric method in chymotrypsin-coupled assays with different concentrations of peptide substrate. The rate constants for the cis–trans conversion were evaluated by fitting the data to the integrated first-order rate equation through nonlinear least-square analysis.

The next data set concerns SK-HEP1 HCC cells. Kind of data set: MTT-based cell proliferation assay, SK-HEP1. On the set-up: species or system human. Particulars: Homo sapiens, SK-HEP1, Table 2, 48 h. The method, then: (§1) Human HCC cells SK-HEP1 and QGY; breast cancer cells HCC1954, BT474, and MDA-MB468; ovarian cancer cells SKOV3; and prostate cancer cells PC3 and LNCaP were purchased from the Cell Bank of Chinese Academy of Sciences (Shanghai, China), and cultured in T75 flasks with complete DMEM or RPMI 1640 medium (GIBCO, Invitrogen, Gaithersburg, CA, United States) supplemented with 10% FBS (Hyclone, New Zealand), and 1% penicillin/streptomycin (Solarbio, Beijing, China) at 37°C in a humidified atmosphere containing 5% CO2.
(§2) Cell proliferation was determined using methylthiazolyl diphenyl-tetrazolium bromide assay (MTT; Sigma–Aldrich). The cells were seeded onto 96-well plates in a total volume of 150 μl at a density of 3.5 × 10^4 cells/well. […] To avoid the effect of the solvent, the concentration of DMSO was less than 0.1% (v/v) in all experiments. After incubation at 37°C for 48 h, 10 μl of MTT solution (5 mg/ml) was added and continued to incubate for 4 h. Following removal of medium containing MTT, 200 μl of DMSO was added to dissolve the formazan crystals formed by live cells. Solution absorbance was measured at 490 nm with an absorbance microplate reader (BioTek, Winooski, VT, United States). The assay was repeated six times. The IC50 value was determined from plot of % viability against the dose of compounds added.

In the next data set the test system is QGY HCC cells. As to the kind of experiment: MTT-based cell proliferation assay, QGY. Further details: species or system human. Particulars: Homo sapiens, Table 2, 48 h. Here is the method: as §1, §2
Data set [1] in a line: Blood serum level after intraperitoneal administration. Type of data set: in vivo. Particulars: blood serum (unpublished data).
In data set [2] the test system is xenograft mouse tumor model. Kind of data set: In vivo xenograft mouse tumor model. Particulars: xenograft mouse tumor model (unpublished data).

What is called Kd is the equilibrium constant for the complex coming apart. In general, IC50 refers to the point on the concentration scale where inhibition reaches its midpoint. On to `CN(C)C(=O)Nc1ccc2nc(-c3ccco3)c(-c3ccco3)nc2c1` [ZX-J-19], for which the Kd at CyPJ was determined as 16.7 µM. For the same compound, the concentration for half-maximal inhibition (IC50) was 15.949 ± 0.012 µM at CyPJ PPIase, 40.44 ± 0.033 µM in the data set with SK-HEP1 HCC cells and 52.438 ± 0.019 µM with QGY HCC cells. Moreover, the “time until absorbed and accumulated in blood serum” value in data set [1] was ≤ 10 min. Further, the “time until declined and diminished to control levels” value in data set [1] is listed as 8 h. The “antitumor activity in vivo” value in data set [2] is listed as “poor antitumor activity”.
